Each compound was assayed against T1, recombinant human GST-SYK (Homo sapiens, UniProt P43405) (assay: Homogeneous Time-Resolved Fluorescence (HTRF) assay for the recombinant human Syk enzyme). Details: recombinant human GST-SYK 5 pM, ATP 25 μM, read-out: rhSYK IC50.
T1 construct: purchased Carna Biosciences 08-176
Format: biochemical
Description: Homogeneous Time-Resolved Fluorescence (HTRF) Assay for the Recombinant Human Syk Enzyme
A recombinant GST-hSYK fusion protein was used to measure potency of compounds to inhibit human Syk activity. The recombinant human GST-SYK (Carna Biosciences #08-176) (5 pM final concentration) was incubated with various concentrations of the inhibitor diluted in DMSO (0.1% final concentration) for 10 minutes at room temperature in 15 mM Tris-HCl (pH 7.5), 0.01% tween 20, 2 mM DTT in 384 well plate format. To initiate the reaction the biotinylated substrate peptide (250 nM final concentration) that contains the phosphorylation site for Syk was added with magnesium (5 mM final concentration) and ATP (25 μM final concentration). Final volume of the reaction was 10 μL. Phosphorylation of the peptide was allowed to proceed for 45′ at room temperature. To quench the reaction and detect the phosphorylated product, 2 nM of a Europium-anti-phosphotyrosine antibody (Perkin Elmer #AD0161) and 70 nM SA-APC (Perkin-Elmer #CR130-100) were added together in 15 mM Tris pH 7.5, 40 mM EDTA, 0.01% tween 20. Final volume of the quenching solution was 10 μL.
The resulting HTRF signal was measured after 30 minutes on an EnVision (Perkin-Elmer) reader using a time-resolved fluorescence protocol. Table A below lists activities as IC50 values (nM) for representative compounds of the invention.

IC50 [nM]	Structure (SMILES)
0.0649	CCc1cc(Nc2cc(C)cc(-c3cnc(C4(O)CCCc5cc(C(=O)O)ccc54)s3)n2)ncn1 (single isomer, unassigned) [Example 2.11, (R or S)-5-(5-{6-[(6-ethylpyrimidin-4-yl)amino]-4-methylpyridin-2-yl}-1,3-thiazol-2-yl)-5-hydroxy-5,6,7,8-tetrahydronaphthalene-2-carboxylic acid]
2.5	COc1cc(Nc2cc(C)cc(-c3cnc([C@@]4(O)CC[C@H](C(N)=O)C(C)(C)C4)s3)n2)ncn1 (single isomer, unassigned) [Example 3.1, (1S,4R or 1R,4S)-4-Hydroxy-4-(5-{6-[(6-methoxypyrimidin-4-yl)amino]-4-methylpyridin-2-yl}-1,3-thiazol-2-yl)-2,2-dimethylcyclohexanecarboxamide]
182	Cc1cnnc(Nc2cc(C)cc(-c3cnc([C@@]4(O)CC[C@H](C(=O)O)C(C)(C)C4)s3)n2)c1 (single isomer, unassigned) [Example 3.3, (1S,4R or 1R,4S)-4-hydroxy-2,2-dimethyl-4-(5-{4-methyl-6-[(5-methylpyridazin-3-yl)amino]pyridin-2-yl}-1,3-thiazol-2-yl)cyclohexanecarboxylic acid]
2.32	COc1cc(Nc2cc(C)cc(-c3cnc(C4(O)CCC(C(=O)O)C(C)(C)C4)s3)n2)ncn1 (single isomer, unassigned) [Example 3.4, (1S,4R or 1R,4S)-4-hydroxy-4-(5-{6-[(6-methoxypyrimidin-4-yl)amino]-4-methylpyridin-2-yl}-1,3-thiazol-2-yl)-2,2-dimethylcyclohexane-carboxylic acid]
0.562	Cc1cc(Nc2cc(C(F)(F)F)ncn2)nc(-c2cnc(C3(O)CCC(C(N)=O)C(C)(C)C3)s2)c1 (single isomer, unassigned) [Example 3.5, (1S,4R or 1R,4S)-4-hydroxy-2,2-dimethyl-4-[5-(4-methyl-6-{[6-(trifluoromethyl)pyrimidin-4-yl]amino}pyridin-2-yl)-1,3-thiazol-2-yl]cyclohexanecarboxamide]
0.517	CC1(C)CC(O)(c2ncc(-c3cccc(Nc4cc(C(F)(F)F)ncn4)n3)s2)CCC1C(=O)O (single isomer, unassigned) [Example 3.6, (1S,4R or 1R,4S)-4-hydroxy-2,2-dimethyl-4-[5-(6-{[6-(trifluoromethyl)pyrimidin-4-yl]amino}pyridin-2-yl)-1,3-thiazol-2-yl]cyclohexanecarboxylic acid]
4.54	CC1(C)CC(O)(c2ncc(-c3cccc(Nc4cc(C(F)(F)F)ncn4)n3)s2)CCC1C(=O)O (single isomer, unassigned) [Example 3.7, (1S,4R or 1R,4S)-4-hydroxy-2,2-dimethyl-4-[5-(6-{[6-(trifluoromethyl)pyrimidin-4-yl]amino}pyridin-2-yl)-1,3-thiazol-2-yl]cyclohexanecarboxylic acid]
0.608	Cc1cc(Nc2cnccn2)nc(-c2cnc([C@@]3(O)CC[C@H](C(=O)O)C(C)(C)C3)s2)c1 (single isomer, unassigned) [Example 3.8, (1S,4R or 1R,4S)-4-hydroxy-2,2-dimethyl-4-{5-[4-methyl-6-(pyrazin-2-ylamino)pyridin-2-yl]-1,3-thiazol-2-yl}cyclohexanecarboxylic acid]
22.1	Cc1cc(Nc2nccc(C)n2)cc(-c2cnc([C@@]3(O)CC[C@H](C(=O)O)C(C)(C)C3)s2)n1 (single isomer, unassigned) [Example 4.3, (1S,4R or 1R, 4S)-4-hydroxy-2,2-dimethyl-4-(5-{6-methyl-4-[(4-methylpyrimidin-2-yl)amino]pyridin-2-yl}-1,3-thiazol-2-yl)cyclohexanecarboxylic acid]
375	CCCCOC(=O)[C@H]1CC[C@H](C(C)(O)c2ncc(-c3cc(Nc4nccc(C(F)(F)F)n4)cc(C)n3)s2)CC1 (single isomer, unassigned) [Example 4.6, butyl (trans)-4-((R or S)-1-hydroxy-[5-(6-methyl-4-{[4-(trifluoromethyl)pyrimidin-2-yl]amino}pyridin-2-yl)-1,3-thiazol-2-yl]ethyl}cyclohexane carboxylate]
73.6	CCCCOC(=O)[C@H]1CC[C@H](C(C)(O)c2ncc(-c3cc(Nc4nccc(OC)n4)cc(C)n3)s2)CC1 (single isomer, unassigned) [Example 4.7, butyl (trans)-4-((R or S)-1-hydroxy-1-(5-{4-[(4-methoxypyrimidin-2-yl)amino]-6-methylpyridin-2-yl}-1,3-thiazol-2-yl)ethyl]cyclohexane carboxylate]
0.266	Cc1cc(Nc2nccc(C(F)(F)F)n2)cc(-c2cnc(C(C)(O)[C@H]3CC[C@H](C(=O)O)CC3)s2)n1 (single isomer, unassigned) [Example 4.8, (trans)-4-((R or S)-1-hydroxy-1-[5-(6-methyl-4-{[4-(trifluoromethyl)pyrimidin-2-yl]amino}pyridin-2-yl)-1,3-thiazol-2-yl]ethyl}cyclohexane carboxylic acid]
0.594	COc1ccnc(Nc2cc(C)nc(-c3cnc(C(C)(O)[C@H]4CC[C@H](C(=O)O)CC4)s3)c2)n1 (single isomer, unassigned) [Example 4.9, (trans)-4-((R or S)-1-hydroxy-1-(5-{4-[(4-methoxypyrimidin-2-yl)amino]-6-methylpyridin-2-yl}-1,3-thiazol-2-yl)ethyl]cyclohexane carboxylic acid]
94	CCCCOC(=O)[C@H]1CC[C@H](C(C)(O)c2ncc(-c3cc(Nc4nccc(C)n4)cc(C)n3)s2)CC1 (single isomer, unassigned) [Example 4.10, butyl (trans)-4-((R or S)-1-hydroxy-1-(5-{6-methyl-4-[(4-methylpyrimidin-2-yl)amino]pyridin-2-yl}-1,3-thiazol-2-yl)ethyl]cyclohexane carboxylate]
1.31	Cc1cc(Nc2nccc(C)n2)cc(-c2cnc(C(C)(O)[C@H]3CC[C@H](C(=O)O)CC3)s2)n1 (single isomer, unassigned) [Example 4.11, (trans)-4-((R or S)-1-hydroxy-1-(5-{6-methyl-4-[(4-methylpyrimidin-2-yl)amino]pyridin-2-yl}-1,3-thiazol-2-yl)ethyl]cyclohexane carboxylic acid]
1.82	CC(O)(c1ncc(-c2cncc(Nc3cc(C(F)(F)F)ccn3)n2)s1)[C@H]1CC[C@H](C(=O)O)CC1 (single isomer, unassigned) [Example 4.12, (trans)-4-((R or S)-1-hydroxy-1-[5-(6-{[4-(trifluoromethyl)pyridin-2-yl]amino}pyrazin-2-yl)-1,3-thiazol-2-yl]ethyl}cyclohexane carboxylic acid]
14.5	Cc1cc(Nc2cc(C)ccn2)cc(-c2cnc(C(C)(O)[C@H]3CC[C@H](C(=O)O)CC3)s2)c1 (single isomer, unassigned) [Example 4.14, (trans)-4-((R or S)-1-hydroxy-1-(5-{3-methyl-5-[(4-methylpyridin-2-yl)amino]phenyl}-1,3-thiazol-2-yl)ethyl]cyclohexane carboxylic acid]
29.3	Cc1cc(Nc2cc(C)ccn2)cc(-c2cnc(C(C)(O)C3CCC(C(=O)O)CC3)s2)c1 (single isomer, unassigned) [Example 4.15, (trans)-4-((R or S)-[1-hydroxy-1-(5-{3-methyl-5-[(4-methylpyridin-2-yl)amino]phenyl}-1,3-thiazol-2-yl)ethyl]cyclohexanecarboxylic acid]

Source: US9745295B2, “Thiazole-substituted aminoheteroaryls as spleen tyrosine kinase inhibitors” (Merck Sharp & Dohme Corp., priority 2013, dated 2017)
